Measurements published in patent publication US10100008B2, “Immunostimulating agent” (AJINOMOTO CO., INC., priority 2014, dated 2018).
Each block holds one compound with its values, some of them ahead of it.

What was measured:
[1] = tested on: anti OVA-specific IgG1 subclass antibody; test: Adjuvant activity test: anti OVA-specific IgG1 subclass antibody in serum after subcutaneous immunization with OVA; type: in vivo, BALB/c mice; conditions: dorsal-subcutaneous
Protocol: One week later, the secondary immunization was carried out by dorsal-subcutaneous administration of solutions similar to those of the above-mentioned (1) to (5) again. Two weeks from the secondary immunization, the whole blood and spleen were extracted under anesthesia, and the obtained serum sample was measured for anti OVA-specific IgG1 subclass antibody. A method for measurement of the anti OVA-specific IgG1 subclass antibody in Example 1, and the following Examples 2, 4, 7 to 10 and 13 to 16 is as follows.
To a 96 well plate was added 5 μg/ml OVA at 100 μl/well, and the mixture was incubated at 4° C. overnight. After incubation, the mixture was washed three times with 200 μl of PBS-T (PBS (phosphate buffered saline)+0.05% (v/v) Tween 20) per well, and blocked with 100 μl of 5% FCS (fatal calf serum)/PBS solution per well at room temperature for 1 to 2 hr. Thereafter, the mixture was washed three times with PBS-T (200 μl/well), a diluted serum sample (100 μl/well) or the same amount of 5% FCS/PBS solution as a control was added, and the mixture was incubated at 37° C. for 1 hr. Thereafter, the mixture was washed five times with PBS-T (200 μl/well), a diluted biotinylated anti-mouse IgG1 antibody (100 μl/well) was added, and the mixture was incubated at 37° C. for 45 min. Thereafter, the mixture was washed five times with PBS-T (200 μl/well), a diluted anti-biotin-HRP antibody was added (100 μl/well), and the mixture was incubated at 37° C. for another 30 min. Thereafter, the mixture was washed five times with PBS-T (200 μl/well), TMB substrate solution was added (100 μl/well), and the mixture was incubated at room temperature for 10 to 15 min. Thereafter, a reaction quenching liquid (2N sulfuric acid solution) was added (50 μl/well) to discontinue a color developing reaction, and the absorbance (OD Value=450 nm) was measured by a microplate reader.
One week later, the secondary immunization was carried out by dorsal-subcutaneous administration of solutions similar to those of the above-mentioned (1) to (6) again. Two weeks from the secondary immunization, the whole blood and spleen were extracted under anesthesia, and the obtained serum sample was measured for anti OVA-specific IgG1 subclass antibody.
8-Week-old female BALB/c mice were divided into groups (N=6), and each group was primarily immunized by dorsal-subcutaneous administration of (1) ovalbumin (OVA) ([…] administration group), (2) OVA (10 μg) and, as an adjuvant, N,N′-bis(2-heptylundecanoyl)-L-cystine dimethyl ester (SZ23) ([…]), (3) OVA (10 μg) and N,N′-bis(dodecanoyl)-L-cystine dimethyl ester (SZ24) ([…]), and (4) saline (saline single administration group), each per mouse. One week later, the secondary immunization was carried out by dorsal-subcutaneous administration of solutions similar to those of the above-mentioned (1) to (4) again. Two weeks from the secondary immunization, the whole blood was extracted under anesthesia, and the obtained serum sample was measured for anti OVA-specific IgG1 subclass antibody. SZ24 is disclosed in JP-A-4-230359, which is incorporated herein by reference in its entirety.
8-Week-old female BALB/c mice were divided into groups (N=6), and each group was primarily immunized by dorsal-subcutaneous administration of (1) ovalbumin (OVA) ([…] administration group), (2) OVA (10 μg) and, as an adjuvant, N,N′-bis(2-tetradecylhexadecanoyl)-L-cystine dimethyl ester (SZ37) (0.256 μmol) added to saline, (3) OVA (10 μg) and N,N′-bis(2-octadecyleicosanoyl)-L-cystine dimethyl ester (SZ38) (0.256 μmol) added to saline, (4) OVA (10 μg) and SZ37 (0.256 μmol) dissolved or dispersed in 5% αCD-added saline, and (5) OVA (10 μg) and SZ38 (0.256 μmol) dissolved or dispersed in 5% αCD-added saline, each per mouse. One week later, the secondary immunization was carried out by dorsal-subcutaneous administration of solutions or dispersions similar to those of the above-mentioned (1) to (5) again. […]

[2] = Dispersibility investigation test (turbidity, OD 650 nm; photograph); type: physicochemical; conditions: for dispersion in 5% αCD-added saline (photograph) / dispersion in saline (photograph): after stirring; for dispersion in saline (photograph): 0.256 μmol in 1 mL saline
Protocol: N,N′-bis(2-tetradecylhexadecanoyl)-L-cystine dimethyl ester (SZ37) and N,N′-bis(2-octadecyleicosanoyl)-L-cystine dimethyl ester (SZ38) (0.256 μmol) were each dispensed to a 2 mL tube containing zirconia beads, saline or 5% α-cyclodextrin (hereinafter to be also simply referred to as αCD)-added saline (1 mL) was added, and the mixture was stirred. The absorbance (OD Value=650 nm) was measured by a microplate reader, and the turbidity was calculated as an index of dispersibility. The measurement method of the turbidity is as follows.
SZ37 and SZ38 (0.256 μmol) were each dispensed to a 2 mL tube containing zirconia beads, saline or 5% αCD-added saline (1 mL) was added, and the mixture was vigorously stirred three times under conditions of 3.15 seconds one time at 6000 rpm. The mixture was dispensed by 200 μL to a 96 well plate, and the absorbance (OD Value=650 nm) was measured by a microplate reader. As a control, kaolinite (1 mg) was dissolved in distilled water (1 L), and the absorbance (OD Value=650 nm) was measured by a microplate reader. The absorbance thereof (OD Value=650 nm) was defined to be turbidity: 1, and the turbidity of each sample was calculated from the ratio with the measured value of kaolinite.
Whether the dispersion state varies depending on the dispersion solvent when SZ37 and SZ38 are dispersed was studied. In the same manner as in Example 10, SZ37 and SZ38 were added 1% β-cyclodextrin (hereinafter to be also referred to simply as βCD)-added saline or 5% αCD-added saline, and the mixture was stirred. The absorbance (OD Value=650 nm) was measured by a microplate reader, and the turbidity was calculated as an index of dispersibility. The measurement method of turbidity as in Example 11.

[3] = 2.56 μmol in saline with OVA 10 μg, primary + secondary immunization, serum two weeks after, compared to OVA single administration group
[4] = 0.256 μmol dispersed in 5% αCD-added saline with OVA 10 μg, compared to control (OVA in 5% αCD-added saline)
[5] = 0.256 μmol dispersed in 5% αCD-added saline with OVA 10 μg, compared to OVA single administration group (OVA in saline)
[6] = 0.256 μmol in saline with OVA 10 μg, compared to OVA single administration group
[7] = 0.256 μmol in 1 mL 5% αCD-added saline
[8] = 0.256 μmol in 1 mL 5% αCD-added saline, compared to dispersion in saline
[9] = 5% αCD-added saline, compared to dispersion in 1% βCD-added saline

Compound: COC(=O)[C@@H](N)CSSC[C@H](N)C(=O)OC [(CyssOMe)2, cystine dimethyl ester, reference compound]
production of anti OVA-specific IgG1 subclass antibody [1, 3]: did not show a significant difference

Compound: CC(C)CCCCCCCCCCCCCCC(=O)O [ISA, isostearic acid, reference compound]
production of anti OVA-specific IgG1 subclass antibody ([1]; 5.12 μmol in saline with OVA 10 μg, compared to OVA single administration group): did not show a significant difference

Compound: CCCCCCCCCCCCCCCC(=O)N[C@@H](CSSC[C@H](NC(=O)CCCCCCCCCCCCCCC)C(=O)OC)C(=O)OC [SZ22, N,N′-bis(hexadecanoyl)-L-cystine dimethyl ester]
production of anti OVA-specific IgG1 subclass antibody [1, 4]: significantly increased
production of anti OVA-specific IgG1 subclass antibody [1, 3]: significantly increased

Compound: COC(=O)[C@H](CSSC[C@H](NC(=O)C(CCC(C)CC(C)(C)C)C(C)CC(C)(C)C)C(=O)OC)NC(=O)C(CCC(C)CC(C)(C)C)C(C)CC(C)(C)C (stereo partly drawn) [SZ23′, N,N′-bis[5,7,7-trimethyl-2-(1,3,3-trimethylbutyl)octanoyl]-L-cystine dimethyl ester]
production of anti OVA-specific IgG1 subclass antibody [1, 3]: significantly increased

Compound: CCCCCCCCCCCC(=O)N[C@@H](CSSC[C@H](NC(=O)CCCCCCCCCCC)C(=O)OC)C(=O)OC [SZ24, N,N′-bis(dodecanoyl)-L-cystine dimethyl ester, reference compound]
production of anti OVA-specific IgG1 subclass antibody [1, 3]: did not show a significant difference

Compound: CCCCC/C=C\C/C=C\CCCCCCCC(=O)N[C@@H](CSSC[C@H](NC(=O)CCCCCCC/C=C\C/C=C\CCCCC)C(=O)OC)C(=O)OC [SZ28, N,N′-bis(linoleoyl)-L-cystine dimethyl ester, reference compound]
production of anti OVA-specific IgG1 subclass antibody [1, 3]: did not increase significantly

Compound: CCCCCCCCCCCCC(=O)N[C@@H](CSSC[C@H](NC(=O)CCCCCCCCCCCC)C(=O)OC)C(=O)OC [SZ34, N,N′-bis(tridecanoyl)-L-cystine dimethyl ester]
production of anti OVA-specific IgG1 subclass antibody [1, 4]: significantly increased
production of anti OVA-specific IgG1 subclass antibody [1, 3]: significantly increased

Compound: CCCCCCCCCCCCCCCCCCCCCCCCCCCCCC(=O)N[C@@H](CSSC[C@H](NC(=O)CCCCCCCCCCCCCCCCCCCCCCCCCCCCC)C(=O)OC)C(=O)OC [SZ36, N,N′-bis(triacontanoyl)-L-cystine dimethyl ester]
production of anti OVA-specific IgG1 subclass antibody [1, 4]: significantly increased
production of anti OVA-specific IgG1 subclass antibody [1, 3]: significantly increased

dispersion in 5% αCD-added saline (photograph) [2, 7]: could be uniformly dispersed
turbidity (index of dispersibility) [2, 8]: significantly higher
dispersion in saline (photograph) [2]: could not be dispersed
turbidity (index of dispersibility) [2, 9]: significantly higher
Compound: CCCCCCCCCCCCCCC(CCCCCCCCCCCCCC)C(=O)N[C@@H](CSSC[C@H](NC(=O)C(CCCCCCCCCCCCCC)CCCCCCCCCCCCCC)C(=O)OC)C(=O)OC [SZ37, N,N′-bis(2-tetradecylhexadecanoyl)-L-cystine dimethyl ester]
production of anti OVA-specific IgG1 subclass antibody [1, 5]: significantly increased
production of anti OVA-specific IgG1 subclass antibody [1, 6]: did not increase significantly

dispersion in 5% αCD-added saline (photograph) [2, 7]: could be uniformly dispersed
turbidity (index of dispersibility) [2, 8]: significantly higher
dispersion in saline (photograph) [2]: could not be dispersed
turbidity (index of dispersibility) [2, 9]: significantly higher
Compound: CCCCCCCCCCCCCCCCCCC(CCCCCCCCCCCCCCCCCC)C(=O)N[C@@H](CSSC[C@H](NC(=O)C(CCCCCCCCCCCCCCCCCC)CCCCCCCCCCCCCCCCCC)C(=O)OC)C(=O)OC [SZ38, N,N′-bis(2-octadecyleicosanoyl)-L-cystine dimethyl ester]
production of anti OVA-specific IgG1 subclass antibody [1, 5]: significantly increased
production of anti OVA-specific IgG1 subclass antibody [1, 6]: did not increase significantly

Compound: CCCCCCCCCCCCCCCCCCCCCC(=O)N[C@@H](CSSC[C@H](NC(=O)CCCCCCCCCCCCCCCCCCCCC)C(=O)OC)C(=O)OC [SZ66, N,N′-bis(docosanoyl)-L-cystine dimethyl ester]
production of anti OVA-specific IgG1 subclass antibody [1, 4]: significantly increased
